Data as given in PMC3438169 (PLoS ONE, 2012).
Where a SMILES comes first, the peptide text is derived from it. The star is where a group is joined. Cbz = O=C(OCc1ccccc1)*

Experiments:
[1] = tested on: HCT116; assay: Cell viability (CellTiter-Glo), HCT116 with siRNA or mEF-G1 variants; assay type: cell-based, human; details: 7 days
Protocol: (§1) HCT116 (ATCC, CCL-247) and RKO (ATCC, CRL-2577) cell lines were maintained in a humidified incubator at 37°C and 5% CO2 in RPMI1640 supplemented with 10% FBS. Cell viability was determined using the CellTiter-Glo luminescent cell viability assay (Promega). […] Subsequently, 40 µl of CellTiter-Glo reagent was added to each well and luminescence recorded on an Envision plate reader (Perkin Elmer). Each treatment condition was tested in triplicate and compared to an equivalent volume of DMSO as control.
(§2) Non-targeting (NT) or GFM1 siRNA pools were obtained from Dharmacon (ON-TARGETplus SMART pool D-001810 and L-013685). HCT116 and RKO cells were reverse transfected in 6-well plates using RNAiMax (Invitrogen) and 25 nM siRNA. After 2 days, cells were harvested by trypsinization and re-plated into 6-well plates for western blot analysis or into 384-well plates for compound treatments and cell viability determination using CellTiter-Glo as described above.
(§3) The human GFM1 cDNA (encoding mEF-G1, Table 2) was mutagenized in pENTR221 (Invitrogen) using QuikChangeII XL site-directed mutagenesis (Stratagene). The following point mutations were introduced: C1355T (encoding S452L), C1481T (encoding S494F) and T2078A (encoding L693Q). The GFM1 cDNAs were then subcloned into the mammalian expression vector pLenti4/TO/V5 using LR clonase II (Invitrogen) and sequence-verified. The pLenti4 constructs were then co-transfected with a lentiviral plasmid mix (encoding LP1, LP2 and VSV-G) into 293T cells, and viral particles were harvested after 72 h and used to infect HCT116 and RKO cells. Stable cell lines were generated by selection with 400 µg/ml Zeocin and plated into 6-well plates for western blot analysis or into 384-well plates for compound treatments and cell viability determination using CellTiter-Glo as described above.

[2] = tested on: RKO; assay: Cell viability (CellTiter-Glo), RKO with siRNA or mEF-G1 variants; assay type: cell-based, human; details: 7 days
Protocol: as §1, §2, §3

[3] = tested on: Cox4-GFP labeled mitochondria; assay: Microscopy of mitochondrial morphology (Cox4-GFP); assay type: cell-based, S. cerevisiae; details: Benomyl 3× IC30 (90 µM), 30 minutes
Protocol: BY4741 cells containing a genomic COX4-GFP fusion where grown to mid-log phase in glucose and ethanol/glycerol media and incubated with the corresponding concentrations of compound for 30 minutes. Aliquots where spotted on microscopy slides and directly imaged on a Zeiss Axiovert 200Mot microscope equipped with a AxioCam MRm digital camera using the Plan-Neofluar 100×, 1.3 oil PH3 objective (Carl Zeiss, Feldbach, Switzerland). A z-stack consisting of 3 images spaced by […] in the filterset 38 (eGFP) channel and a phase-contrast image where acquired. False colors where applied to the GFP images (green) and phase contrast (blue) and the images merged into one plane and scaled to 8-bit. Representative, individual cells where selected and assembled into a panel using Adobe Photoshop (Adobe Systems Inc.).

[4] = tested on: EF-G in complex with the ribosome; details: ref [22], [23], [24]; cited from earlier work
From the text: This may stand in contrast to the characterized inhibitor of EF-G, fusidic acid, which binds at the GDP/GTP binding pocket and interferes with the post translocation release of EF-G bound on the riboso ...

[5] = tested on: 512 human cancer cell lines; assay: Compound correlation analysis across the cell line panel; assay type: cell-based; details: Pearson correlation across 512 cell lines
Protocol: All cell lines were maintained in humidified incubators at 37°C and 5% CO2 in DMEM or RPMI1640 supplemented with 10% FBS. Cells were seeded into 1536-well plates at a density of 250 cells per well, allowed to adhere for 12–24 hours, then treated for 3 days with pharmacological agents in 8-point dose response (semi-log from 8 µM to 2.5 nM), and cell viability was assessed using CellTiter Glo (Promega). […] Compound correlation analysis was performed by calculating a Pearson correlation for each compound pair (using either IC50 or Amax values) across the 512 cell lines. We required data values for a minimum of 50 cell lines in common to avoid spuriously high correlations.

[6] = tested on: angiogenesis; details: p27-dependent mechanism; ref [6], [7], [8], [9]; cited from earlier work
From the text: (§4) Natural products constitute a major resource for the identification of bioactive molecules. Indeed, most antibacterials in current use are natural products or semisynthetic derivatives thereof. The argyrins are natural peptides produced by myxobacteria and actinomycetes that have an intriguing antibacterial spectrum of activity, [2], [3]. This includes the intrinsically drug resistant organism Pseudomonas aeruginosa, but not other Gram negatives tested, such as Escherichia coli or Salmonella typhimurium, unless the cells are compromised in their outer membrane permeability barrier, p ...

[7] = tested on: apoptosis; details: ref [6], [7], [8], [9]; cited from earlier work
From the text: as §4

[8] = tested on: proteasome; details: ref [6], [7], [8], [9]; cited from earlier work
From the text: as §4

CC(C)C[C@@H](C=O)NC(=O)[C@H](CC(C)C)NC(=O)[C@H](CC(C)C)NC(=O)OCc1ccccc1 [MG132, reference compound] (Cbz-Leu-Leu-Leu-aldehyde)
Sensitivity change on knock down of mEF-G1 (in words) ([1]; HCT116, GFM1 siRNA): without altering sensitivity
Sensitivity change on expression of mEF-G1 L693Q (in words) ([1]; HCT116, mEF-G1 L693Q): without altering sensitivity
Sensitivity change on knock down of mEF-G1 (in words) ([2]; GFM1 siRNA): without altering sensitivity
Sensitivity change on expression of mEF-G1 L693Q (in words) ([2]; mEF-G1 L693Q): without altering sensitivity

CCCCNC(=O)n1c(NC(=O)OC)nc2ccccc21 [benomyl, reference compound]
Effect on mitochondria (in words) [3]: had no effect on mitochondria

CC(=O)O[C@H]1C[C@@]2(C)[C@@H](C[C@@H](O)[C@H]3[C@@]4(C)CC[C@@H](O)[C@@H](C)[C@@H]4CC[C@@]32C)/C1=C(\CCC=C(C)C)C(=O)O [fusidic acid]
Binding to EF-G (in words) [4]: binds EF-G in complex with the ribosome

argyrin A
Correlation of IC50 and maximal activity (Amax) profile with argyrin B (in words) [5]: strong correlation
Angiogenesis (in words) [6]: blocks angiogenesis
Apoptosis (in words) [7]: induces apoptosis
Proteasome inhibition (in words) [8]: inhibits the proteasome
